{
  "source": "patent US8507652B2",
  "about": "“Pharmaceutical composition, dressing and method for treating skin lesion, intermediate composition and process for preparing said dressing, and use of cerium salt associated with a collagen matrix” (priority 2008, dated 2013)",
  "origin": "cited, not measured here",
  "key": {"[1]": {"tested_on": "39 bacteria species", "conditions": "39 bacteria species studied, in vitro"}, "[2]": {"tested_on": "interleucin-6", "conditions": "lesions treated with cerium nitrate"}, "[3]": {"tested_on": "TNF-[…]", "conditions": "lesions treated with cerium nitrate"}},
  "data": [
    {"compound": "O=[N+]([O-])[O-].O=[N+]([O-])[O-].O=[N+]([O-])[O-].[Ce+3]", "note": "[cerium nitrate]", "values": [
      {"measurement": "concentration inhibiting growth", "setting": "[1]", "value": "~0.0004", "unit": "M"},
      {"measurement": "interleucin-6 level", "setting": "[2]", "value": "increase"},
      {"measurement": "TNF-[…] level", "setting": "[3]", "value": "reduction"}
    ]}
  ]
}
